Experimental data as given in US11306078B2, “Piperidine CXCR7 receptor modulators” (IDORSIA PHARMACEUTICALS LTD., priority 2016, dated 2022).

Molecular target: human chemokine receptor CXCR7 (Homo sapiens (Human), UniProt P25106)
Test: Tango CXCR7-bla U2OS beta-arrestin recruitment assay (beta-lactamase reporter, FRET), antagonism of CXCL12/SDF1-α;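 further: compounds preincubated 15 min before CXCL12 addition, then 22 h at 37 °C, FRET emission ratio read with CCF4-AM substrate after 2 h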
Type: cell-based
Details: antagonistic effect on CXCR7, Tango CXCR7-bla U2OS cells, CXCL12/SDF1-α at its EC80

human chemokine receptor CXCR7, sequence (P25106 whole entry): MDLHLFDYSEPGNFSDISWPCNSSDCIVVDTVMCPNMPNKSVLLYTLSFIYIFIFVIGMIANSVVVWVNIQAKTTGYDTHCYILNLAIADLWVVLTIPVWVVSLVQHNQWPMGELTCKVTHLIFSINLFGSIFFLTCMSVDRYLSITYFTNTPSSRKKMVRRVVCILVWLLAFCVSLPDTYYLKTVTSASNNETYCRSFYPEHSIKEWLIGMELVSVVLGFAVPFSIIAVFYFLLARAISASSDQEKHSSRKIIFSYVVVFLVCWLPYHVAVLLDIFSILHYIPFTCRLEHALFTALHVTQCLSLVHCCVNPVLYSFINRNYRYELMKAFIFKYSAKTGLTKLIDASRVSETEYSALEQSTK

Compound	IC50 [nM]	IC50 (geometric mean) [nM]
O=C(N[C@@H]1CCN(C2CCC2)C[C@H]1C(=O)NC1(Cc2ccccc2)COC1)c1cc(-c2ccc(F)cc2F)on1 [Example 4.085]	61	
Cc1cccnc1C(C)(C)CNC(=O)[C@@H]1CN(C2CCC2)CC[C@H]1NC(=O)c1cc(-c2ccc(F)cc2F)on1 [Example 4.086]	472	
CC(C)(CNC(=O)[C@@H]1CN(C2CCC2)CC[C@H]1NC(=O)c1cc(-c2ccc(F)cc2F)on1)c1ccccn1 [Example 4.087]	342	
Cc1ccccc1C1(NC(=O)[C@H]2CN(C3CCC3)CC[C@@H]2NC(=O)c2cc(-c3ccc(F)cc3F)on2)CC1 [Example 4.088]	138	
O=C(N[C@@H]1CCN(C2CCC2)C[C@H]1C(=O)NC1(c2ccc(F)cc2)COC1)c1cc(-c2ccc(F)cc2F)on1 [Example 4.089]	299	
CC(C)(CNC(=O)[C@@H]1CN(C2CCC2)CC[C@H]1NC(=O)c1cc(-c2ccc(F)cc2F)on1)c1ccccc1Cl [Example 4.091]	134	
O=C(N[C@@H]1CCN(C2CCC2)C[C@H]1C(=O)NCC1(c2ccc(Cl)cc2)CC1)c1cc(-c2ccc(F)cc2F)on1 [Example 4.092]	126	
O=C(N[C@@H]1CCN(C2CCC2)C[C@H]1C(=O)NCC1(c2ccccn2)CC1)c1cc(-c2ccc(F)cc2F)on1 [Example 4.093]	165	
O=C(N[C@@H]1CCN(C2CCC2)C[C@H]1C(=O)NC1(c2cccc(Cl)c2)COC1)c1cc(-c2ccc(F)cc2F)on1 [Example 4.094]	201	
CCN1CC[C@H](NC(=O)c2cc(-c3ccc(F)cc3F)on2)[C@@H](C(=O)N[C@H](C)c2cccc(C)n2)C1 [Example 4.095]	57	
CCN1CC[C@H](NC(=O)c2cc(-c3ccc(F)cc3F)on2)[C@@H](C(=O)NC(C)(C)c2ncccn2)C1 [Example 4.096]	33	
O=C(N[C@H]1CCN(C2CCC2)C[C@@H]1C(=O)NC1(c2cccc(Cl)c2)COC1)c1cc(-c2ccc(F)cc2F)on1 [Example 4.097]	80	
C[C@@H](NC(=O)[C@H]1CN(C2CCC2)CC[C@@H]1NC(=O)c1cc(-c2ccc(F)cc2F)on1)c1ncccc1F [Example 4.098]	18	
C[C@@H](NC(=O)[C@H]1CN(C2CCC2)CC[C@@H]1NC(=O)c1cc(-c2ccc(F)cc2F)on1)c1ncccc1F [Example 4.098a]	12	
O=C(N[C@@H]1CCN(CC2CC2)C[C@H]1C(=O)NCc1ncccn1)c1cc(-c2ccc(F)cc2F)on1 [Example 4.099]	852	
CC(C)(C)N1CC[C@@H](NC(=O)c2cc(-c3ccc(F)cc3F)on2)[C@H](C(=O)NC2(c3ncccn3)CC2)C1 [Example 4.101]	71	
CC(C)(C)N1CC[C@@H](NC(=O)c2cc(-c3ccc(F)cc3F)on2)[C@H](C(=O)NC2(c3ncccn3)CC2)C1 [Example 4.101a]	18	
CC(C)(C)N1CC[C@H](NC(=O)c2cc(-c3ccc(F)cc3F)on2)[C@@H](C(=O)NC2(c3ncccn3)CC2)C1 [Example 4.101b]	712	
CC(C)(NC(=O)[C@H]1CN(CC2CC2)CC[C@@H]1NC(=O)c1cc(-c2ccc(F)cc2F)on1)c1ncccn1 [Example 4.102]	1	

Compound	IC50 [nM]	IC50 (geometric mean) [nM]
O=C(N[C@H]1CCN(CC2CC2)C[C@@H]1C(=O)NC1(c2ncccn2)CC1)c1noc(-c2ccc(F)cc2)c1F [Example 7.001, (3S,4S)-1-Cyclopropylmethyl-4-{[4-fluoro-5-(4-fluoro-phenyl)-isoxazole-3-carbonyl]-amino}-piperidine-3-carboxylic Acid (1-pyrimidin-2-yl-cyclopropyl)-amide]	32	
O=C(N[C@H]1CCN(CC2CC2)C[C@@H]1C(=O)NC1(c2ncccn2)CC1)c1nc(-c2ccc(F)cc2F)co1 [Example 7.01]	60	
Cc1ccccc1-c1cc(C(=O)N[C@H]2CCN(CC3CC3)C[C@@H]2C(=O)NC2(c3ncccn3)CC2)no1 [Example 7.002, (3S,4S)-1-Cyclopropylmethyl-4-[(5-o-tolyl-isoxazole-3-carbonyl)-amino]-piperidine-3-carboxylic acid (1-pyrimidin-2-yl-cyclopropyl)-amide]	308	
Cc1ccc(-c2cc(C(=O)N[C@H]3CCN(CC4CC4)C[C@@H]3C(=O)NC3(c4ncccn4)CC3)no2)cc1C [Example 7.003, (3S,4S)-1-Cyclopropylmethyl-4-{[5-(3,4-dimethyl-phenyl)-isoxazole-3-carbonyl]-amino}-piperidine-3-carboxylic acid (1-pyrimidin-2-yl-cyclopropyl)-amide]	210	
O=C(N[C@H]1CCN(CC2CC2)C[C@@H]1C(=O)NC1(c2ncccn2)CC1)c1cn(-c2ccc(F)cc2F)nn1 [Example 7.004, (3S,4S)-1-Cyclopropylmethyl-4-{[1-(2,4-difluoro-phenyl)-1H-[1,2,3]triazole-4-carbonyl]-amino}-piperidine-3-carboxylic acid (1-pyrimidin-2-yl-cyclopropyl)-amide]	64	
Cc1ccc(-c2cc(C(=O)N[C@H]3CCN(CC4CC4)C[C@@H]3C(=O)NC3(c4ncccn4)CC3)no2)c(C)c1 [Example 7.005, (3S,4S)-1-Cyclopropylmethyl-4-{[5-(2,4-dimethyl-phenyl)-isoxazole-3-carbonyl]-amino}-piperidine-3-carboxylic acid (1-pyrimidin-2-yl-cyclopropyl)-amide]	36	
O=C(N[C@H]1CCN(CC2CC2)C[C@@H]1C(=O)NC1(c2ncccn2)CC1)c1cc(-c2ccc(F)cc2F)no1 [Example 7.006, (3S,4S)-1-Cyclopropylmethyl-4-{[3-(2,4-difluoro-phenyl)-isoxazole-5-carbonyl]-amino}-piperidine-3-carboxylic acid (1-pyrimidin-2-yl-cyclopropyl)-amide]	8	
O=C(N[C@H]1CCN(CC2CC2)C[C@@H]1C(=O)NC1(c2ncccn2)CC1)c1ncc(-c2ccc(F)cc2)o1 [Example 7.007, (3S,4S)-1-Cyclopropylmethyl-4-{[5-(4-fluoro-phenyl)-oxazole-2-carbonyl]-amino}-piperidine-3-carboxylic acid (1-pyrimidin-2-yl-cyclopropyl)-amide]	140	
O=C(N[C@H]1CCN(CC2CC2)C[C@@H]1C(=O)NC1(c2ncccn2)CC1)c1noc(-c2ccc(F)cc2F)n1 [Example 7.008, (3S,4S)-1-Cyclopropylmethyl-4-{[5-(2,4-difluoro-phenyl)-[1,2,4]oxadiazole-3-carbonyl]-amino}-piperidine-3-carboxylic acid (1-pyrimidin-2-yl-cyclopropyl)-amide]	51	
N#Cc1ccc(-c2cc(C(=O)N[C@H]3CCN(CC4CC4)C[C@@H]3C(=O)NC3(c4ncccn4)CC3)no2)cc1 [Example 7.009, (3S,4S)-4-{[5-(4-Cyano-phenyl)-isoxazole-3-carbonyl]-amino}-1-cyclopropylmethyl-piperidine-3-carboxylic acid (1-pyrimidin-2-yl-cyclopropyl)-amide]	240	
O=C(N[C@H]1CCN(CC2CC2)C[C@@H]1C(=O)NC1(c2ncccn2)CC1)c1ncc(-c2ccc(F)cc2F)o1 [Example 7.011, (3S,4S)-1-Cyclopropylmethyl-4-{[5-(2,4-difluoro-phenyl)-oxazole-2-carbonyl]-amino}-piperidine-3-carboxylic acid (1-pyrimidin-2-yl-cyclopropyl)-amide]	78	
O=C(N[C@H]1CCN(CC2CC2)C[C@@H]1C(=O)NC1(c2ncccn2)CC1)c1cn(-c2c(F)cc(F)cc2F)nn1 [Example 7.012, (3S,4S)-1-Cyclopropylmethyl-4-{[1-(2,4,6-trifluoro-phenyl)-1H-[1,2,3]triazole-4-carbonyl]-amino}-piperidine-3-carboxylic acid (1-pyrimidin-2-yl-cyclopropyl)-amide]	356	
O=C(N[C@H]1CCN(CC2CC2)C[C@@H]1C(=O)NC1(c2ncccn2)CC1)c1cc(-c2ccc(F)c(F)c2)on1 [Example 7.013, (3S,4S)-1-Cyclopropylmethyl-4-{[5-(3,4-difluoro-phenyl)-isoxazole-3-carbonyl]-amino}-piperidine-3-carboxylic acid (1-pyrimidin-2-yl-cyclopropyl)-amide]	252	
O=C(N[C@H]1CCN(CC2CC2)C[C@@H]1C(=O)NC1(c2ncccn2)CC1)c1cc(-c2ccc(F)cc2F)ns1 [Example 7.014, (3S,4S)-1-Cyclopropylmethyl-4-{[3-(2,4-difluoro-phenyl)-isothiazole-5-carbonyl]-amino}-piperidine-3-carboxylic acid (1-pyrimidin-2-yl-cyclopropyl)-amide]	629	
O=C(N[C@H]1CCN(CC2CC2)C[C@@H]1C(=O)NC1(c2ncccn2)CC1)c1cc(-c2ccc(F)cc2F)sn1 [Example 7.015, (3S,4S)-1-Cyclopropylmethyl-4-{[5-(2,4-difluoro-phenyl)-isothiazole-3-carbonyl]-amino}-piperidine-3-carboxylic acid (1-pyrimidin-2-yl-cyclopropyl)-amide]	201	
O=C(N[C@H]1CCN(CC2CC2)C[C@@H]1C(=O)NC1(c2ncccn2)CC1)c1nnc(-c2ccc(F)cc2F)s1 [Example 7.016, (3S,4S)-1-Cyclopropylmethyl-4-{[5-(2,4-difluoro-phenyl)-[1,3,4]thiadiazole-2-carbonyl]-amino}-piperidine-3-carboxylic acid (1-pyrimidin-2-yl-cyclopropyl)-amide]	2	
O=C(N[C@H]1CCN(CC2CC2)C[C@@H]1C(=O)NC1(c2ncccn2)CC1)c1cc(-c2ccccc2)on1 [Reference Example 3, (3S,4S)-1-Cyclopropylmethyl-4-[(5-phenyl-isoxazole-3-carbonyl)-amino]-piperidine-3-carboxylic Acid (1-pyrimidin-2-yl-cyclopropyl)-amide, reference compound]		1330
(3R*,4R*)-1-Cyclohexyl-4-{[1-(2,4-difluoro-phenyl)-1H-[1,2,3]triazole-4-carbonyl]-amino}-piperidine-3-carboxylic acid ((1R*,2S*)-2-phenyl-cyclopropyl)-amide and (3R*,4R*)-1-Cyclohexyl-4-{[1-(2,4-difluoro-phenyl)-1H-[1,2,3]triazole-4-carbonyl]-amino}-piperidine-3-carboxylic acid ((1S*,2R*)-2-phenyl-cyclopropyl)-amide [Example 1.145]	363	
